2 compounds from paper doi:10.1101/2025.11.20.689572v1 (biorxiv, 2025) can be followed below.

SMILES strings stand for the structures. pEC50: −log10 of the molar value. Like-named read-outs stand apart in the source and are kept apart here.

Experiment [1] deals with T1, M3 (Homo sapiens, UniProt P20309).
T1 construct: gene CHRM3; full-length receptor; HEK293 with TRUPATH sensors (function)
Briefly: TRUPATH BRET2 G protein dissociation, HEK293. Conditions: HBSS, […] HEPES pH […] °C; agonist mode. In kind it is cell-based. Background: BRET reads energy transfer from a luciferase to a nearby fluorophore.

The target in experiment [2] is T2, CHRM1 (Homo sapiens, UniProt P11229).
T2 sequence (P11229 1-460): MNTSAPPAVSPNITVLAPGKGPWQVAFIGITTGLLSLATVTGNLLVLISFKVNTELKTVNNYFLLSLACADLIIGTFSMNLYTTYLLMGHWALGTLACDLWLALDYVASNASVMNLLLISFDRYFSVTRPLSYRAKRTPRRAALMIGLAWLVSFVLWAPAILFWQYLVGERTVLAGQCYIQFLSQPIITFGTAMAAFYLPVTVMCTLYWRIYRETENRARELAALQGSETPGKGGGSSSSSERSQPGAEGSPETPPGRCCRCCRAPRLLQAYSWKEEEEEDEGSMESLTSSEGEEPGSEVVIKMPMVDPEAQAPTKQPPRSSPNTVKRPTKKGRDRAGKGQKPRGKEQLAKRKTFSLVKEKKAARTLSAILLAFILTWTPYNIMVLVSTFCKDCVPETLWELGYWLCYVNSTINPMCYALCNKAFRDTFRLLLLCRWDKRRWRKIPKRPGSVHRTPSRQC
Briefly: cell-based. Set-up: species or system HEK293; BRET1 beta-arrestin2 recruitment, receptor-RLuc8 and mVenus-beta-arrestin2 with GRK2. Conditions: Assay=barr2, agonist mode, % of control agonist. An excerpt:
(§1) BRET1 assays followed prior methods.

Experiment [3] deals with CHRM3 (Homo sapiens, UniProt P20309). The experiment can be described thus: cell-based. More on the design: species or system HEK293; BRET1 beta-arrestin2 recruitment, receptor-RLuc8 and mVenus-beta-arrestin2 with GRK2. The following applies: Assay=barr2, agonist mode, % of control agonist.
Source text: as §1

The target of experiment [4] is T3, CHRM4 (Homo sapiens, UniProt P08173).
T3 sequence (P08173 1-479): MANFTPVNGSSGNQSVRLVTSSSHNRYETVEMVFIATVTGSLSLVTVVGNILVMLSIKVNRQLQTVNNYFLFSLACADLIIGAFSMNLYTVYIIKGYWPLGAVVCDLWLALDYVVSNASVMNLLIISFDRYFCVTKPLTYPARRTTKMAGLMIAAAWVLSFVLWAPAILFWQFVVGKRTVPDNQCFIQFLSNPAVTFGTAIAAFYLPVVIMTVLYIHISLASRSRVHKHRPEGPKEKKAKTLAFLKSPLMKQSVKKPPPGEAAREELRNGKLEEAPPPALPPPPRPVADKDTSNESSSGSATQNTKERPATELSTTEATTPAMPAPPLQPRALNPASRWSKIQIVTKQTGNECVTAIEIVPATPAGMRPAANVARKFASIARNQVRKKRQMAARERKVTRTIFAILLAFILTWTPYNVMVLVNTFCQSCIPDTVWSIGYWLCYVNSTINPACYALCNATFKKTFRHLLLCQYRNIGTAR
Briefly: cell-based. More on the design: species or system HEK293; BRET1 beta-arrestin2 recruitment, receptor-RLuc8 and mVenus-beta-arrestin2 with GRK2. The following applies: Assay=barr2, agonist mode, % of control agonist.
Source text: as §1

In experiment [5] the target is T4, CHRM5 (Homo sapiens, UniProt P08912).
T4 sequence (P08912 1-532): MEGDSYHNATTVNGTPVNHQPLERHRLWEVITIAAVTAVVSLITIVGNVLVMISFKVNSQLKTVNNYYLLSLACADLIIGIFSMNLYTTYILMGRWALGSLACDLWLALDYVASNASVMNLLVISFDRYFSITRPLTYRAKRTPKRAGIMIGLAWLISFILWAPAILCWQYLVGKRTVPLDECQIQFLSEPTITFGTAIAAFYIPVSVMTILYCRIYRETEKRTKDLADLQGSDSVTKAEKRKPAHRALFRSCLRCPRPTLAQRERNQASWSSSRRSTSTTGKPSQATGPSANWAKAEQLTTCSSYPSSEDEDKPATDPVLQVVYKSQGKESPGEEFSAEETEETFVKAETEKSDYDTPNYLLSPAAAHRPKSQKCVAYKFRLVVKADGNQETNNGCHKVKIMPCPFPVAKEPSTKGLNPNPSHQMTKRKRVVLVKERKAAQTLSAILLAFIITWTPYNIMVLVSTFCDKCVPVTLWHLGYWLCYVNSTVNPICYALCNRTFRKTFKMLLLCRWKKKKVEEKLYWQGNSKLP
The experiment can be described thus: cell-based. Conditions: Assay=barr2, agonist mode, % of control agonist. More on the design: species or system HEK293; BRET1 beta-arrestin2 recruitment, receptor-RLuc8 and mVenus-beta-arrestin2 with GRK2.
Source text: as §1

The target of experiment [6] is T5, CHRM2 (Homo sapiens, UniProt P08172).
T5 sequence (P08172 1-466): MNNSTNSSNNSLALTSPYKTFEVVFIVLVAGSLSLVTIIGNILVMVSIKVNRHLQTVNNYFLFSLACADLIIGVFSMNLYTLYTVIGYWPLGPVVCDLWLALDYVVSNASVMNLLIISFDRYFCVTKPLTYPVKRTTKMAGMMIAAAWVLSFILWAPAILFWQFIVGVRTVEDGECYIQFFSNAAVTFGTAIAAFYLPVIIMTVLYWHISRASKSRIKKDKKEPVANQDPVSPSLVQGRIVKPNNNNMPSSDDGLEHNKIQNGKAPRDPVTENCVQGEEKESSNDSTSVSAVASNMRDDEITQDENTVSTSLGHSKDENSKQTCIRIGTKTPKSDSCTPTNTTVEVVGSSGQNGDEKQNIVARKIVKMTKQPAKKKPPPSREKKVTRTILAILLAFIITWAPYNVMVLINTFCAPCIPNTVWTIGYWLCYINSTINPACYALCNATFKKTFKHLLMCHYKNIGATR
The experiment can be described thus: cell-based. Set-up: species or system HEK293; GloSensor-22F cAMP assay, Gi-mediated inhibition of isoproterenol-stimulated cAMP; antagonist mode against agonist EC80. The following applies: Assay=Gi, agonist mode, % of control agonist.

In experiment [7] the target is T3, CHRM4. Briefly: cell-based. Set-up: species or system HEK293; GloSensor-22F cAMP assay, Gi-mediated inhibition of isoproterenol-stimulated cAMP; antagonist mode against agonist EC80. Conditions: Assay=Gi, agonist mode, % of control agonist.
The target of experiment [8] is HRH3 (Homo sapiens, UniProt Q9Y5N1). Briefly: cell-based. More on the design: species or system HEK293; TRUPATH BRET2 G-protein dissociation; antagonist mode against agonist EC80. The following applies: agonist mode.
Setting [9] is: HEK293, read-out: N-Desmethyl Xanomeline.

HRH3, sequence (Q9Y5N1 whole entry): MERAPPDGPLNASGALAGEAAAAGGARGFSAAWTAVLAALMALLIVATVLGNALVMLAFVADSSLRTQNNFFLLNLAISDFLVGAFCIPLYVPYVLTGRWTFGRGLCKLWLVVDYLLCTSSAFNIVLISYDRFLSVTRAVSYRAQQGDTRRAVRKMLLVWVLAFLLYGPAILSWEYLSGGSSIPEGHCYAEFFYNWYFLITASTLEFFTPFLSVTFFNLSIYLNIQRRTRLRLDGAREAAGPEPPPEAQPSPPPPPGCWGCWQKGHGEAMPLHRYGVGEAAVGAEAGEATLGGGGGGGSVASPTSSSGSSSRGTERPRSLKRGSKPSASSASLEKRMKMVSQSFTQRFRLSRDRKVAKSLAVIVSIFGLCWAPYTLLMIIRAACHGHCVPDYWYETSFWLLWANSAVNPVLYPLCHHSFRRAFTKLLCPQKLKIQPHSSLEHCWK
T1 sequence (P20309 whole entry): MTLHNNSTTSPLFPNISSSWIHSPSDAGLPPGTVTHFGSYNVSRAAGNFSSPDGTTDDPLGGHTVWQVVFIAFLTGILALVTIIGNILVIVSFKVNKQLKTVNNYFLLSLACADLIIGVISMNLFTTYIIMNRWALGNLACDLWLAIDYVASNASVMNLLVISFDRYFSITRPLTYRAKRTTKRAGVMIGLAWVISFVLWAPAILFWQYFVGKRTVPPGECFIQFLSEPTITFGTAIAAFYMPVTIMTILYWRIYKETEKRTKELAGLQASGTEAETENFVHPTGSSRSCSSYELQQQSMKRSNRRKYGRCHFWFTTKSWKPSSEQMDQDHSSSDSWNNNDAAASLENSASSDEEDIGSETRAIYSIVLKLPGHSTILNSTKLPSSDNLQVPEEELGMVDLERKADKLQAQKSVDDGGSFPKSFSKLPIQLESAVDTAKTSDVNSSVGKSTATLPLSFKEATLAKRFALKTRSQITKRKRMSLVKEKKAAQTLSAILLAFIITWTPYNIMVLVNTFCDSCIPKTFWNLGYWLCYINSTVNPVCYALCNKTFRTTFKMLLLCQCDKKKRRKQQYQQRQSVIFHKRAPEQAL
CHRM3, sequence (P20309 whole entry): as above

The pEC50 is −log10 of the EC50, conventionally taken in molar units. On to `CCCCCCOc1nsnc1C1=CCCNC1` [N-desmethylxanomeline], for which, in experiment [1], the EC50 result is reported as “differential activation of M1-M5 muscarinic receptor transducers”. The Emax was determined as 71.3% in experiment [2] (setting [9]); 32.8% in experiment [3] (setting [9]); 20.5% in experiment [4] (setting [9]); 16.9% in experiment [5] (setting [9]); 107% in experiment [6] (setting [9]); 84.4% in experiment [7] (setting [9]). Besides, the pEC50 in experiment [8] (N-Desmethyl Xanomeline, Assay=Gi1) was 4.96; in experiment [8] (N-Desmethyl Xanomeline, Assay=Gi2) it was 5.34; in experiment [8] (N-Desmethyl Xanomeline, Assay=Gi3) it was 4.73; in experiment [8] (N-Desmethyl Xanomeline, Assay=GoB), 5.15.

Turning to `CCCCCCOc1nsnc1C1=CCCN(C)C1` [Xanomeline], the EC50 entry in experiment [1] is “differential activation of M1-M5 muscarinic receptor transducers”. For the same compound, the Emax in experiment [2] (HEK293, read-out: Xanomeline) is 73.2%; in experiment [3] (HEK293, read-out: Xanomeline) it was 21.7%; in experiment [4] (HEK293, read-out: Xanomeline) it was 29.1%; in experiment [5] (HEK293, read-out: Xanomeline), 27.2%; in experiment [6] (HEK293, read-out: Xanomeline), 85.9%; in experiment [7] (HEK293, read-out: Xanomeline) it was 87.2%. The negative logarithm of the EC50 (pEC50) in experiment [8] (Xanomeline, Assay=Gi2) is 4.99; in experiment [8] (Xanomeline, Assay=GoA), 5.38; in experiment [8] (Xanomeline, Assay=GoB), 5.58.
